The target of data set [1] is T1, rat calcitonin (a) receptor (Rattus norvegicus, UniProt P32214).
T1 construct: expressed in transfected cells; host or cells: BHK tk'ts 13 (transient, FuGENE 6)
T1 sequence (P32214 25-479 isoform P32214-2 limits assumed): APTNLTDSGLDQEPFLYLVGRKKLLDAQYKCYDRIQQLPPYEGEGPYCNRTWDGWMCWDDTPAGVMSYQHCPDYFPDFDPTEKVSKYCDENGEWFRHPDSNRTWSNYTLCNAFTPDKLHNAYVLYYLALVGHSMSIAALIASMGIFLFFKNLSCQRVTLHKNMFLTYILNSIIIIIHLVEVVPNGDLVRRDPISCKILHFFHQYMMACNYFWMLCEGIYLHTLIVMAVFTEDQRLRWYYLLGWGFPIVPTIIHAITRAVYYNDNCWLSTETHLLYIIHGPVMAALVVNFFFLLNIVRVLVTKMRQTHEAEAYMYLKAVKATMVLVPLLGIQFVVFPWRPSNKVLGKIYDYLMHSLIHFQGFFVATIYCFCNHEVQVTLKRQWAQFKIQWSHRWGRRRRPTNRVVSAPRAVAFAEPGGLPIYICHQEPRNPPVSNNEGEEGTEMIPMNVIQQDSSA
Briefly: Assay (II)b functional rat calcitonin receptor cAMP FlashPlate assay. The class given is cell-based. The following applies: Table 11; read-out: CTa receptor rat EC50. The text has this:
(§1) Activation of calcitonin and amylin (coexpression of calcitonin receptor and receptor activity modifying proteins (RAMP)) receptors lead to increased intracellular concentrations of cAMP. In order to quantify the cAMP levels in transiently transfected cells the Adenylyl Cyclase Activation FlashPlate® Assay from Perkin Elmer was used. The basic principle of the FlashPlate® Assay is a competition between radioactive and non-radioactive cAMP generated by the cells for a fixed number of binding sites.
(§2) BHK tk′ts 13 cells were transiently transfected with either rat calcitonin (a) receptor or amylin 3 (a) receptor (rat calcitonin(a) receptor+ rat RAMP3) using FuGENE® 6 (Roche), according to the manufacturers recommendations.
(§3) 24 hours after transient transfection the cells (rat calcitonin(a)—or rat amylin 3(a)—receptor cells) were added (100.000 cells/well) to the 96 well FlashPlates® with samples or standard in FlashPlate stimulation buffer with IBMX and incubated for 30 min. Detection mix was created according to manufacturers protocol and scintillation measured after 3 h of incubation on TopCounter™ (Packard).

The target of data set [2] is T2, human calcitonin receptor (CTa receptor) (Homo sapiens, UniProt P30988).
T2 construct: expressed in transfected cells
T2 sequence (P30988 25-474): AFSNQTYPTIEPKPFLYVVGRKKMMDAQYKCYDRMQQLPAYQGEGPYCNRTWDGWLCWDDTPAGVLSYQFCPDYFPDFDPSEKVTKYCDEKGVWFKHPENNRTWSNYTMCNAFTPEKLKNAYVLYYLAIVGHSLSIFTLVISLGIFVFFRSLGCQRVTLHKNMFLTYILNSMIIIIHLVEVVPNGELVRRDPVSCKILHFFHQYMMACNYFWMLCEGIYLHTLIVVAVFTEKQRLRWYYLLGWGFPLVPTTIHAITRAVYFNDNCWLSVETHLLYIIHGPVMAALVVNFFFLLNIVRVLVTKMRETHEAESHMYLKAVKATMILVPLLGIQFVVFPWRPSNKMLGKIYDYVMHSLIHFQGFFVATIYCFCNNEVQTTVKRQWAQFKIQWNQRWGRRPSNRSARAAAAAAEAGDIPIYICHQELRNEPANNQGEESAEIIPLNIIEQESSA
Briefly: Assay (II)a functional human calcitonin receptor CRE-luciferase assay. The class given is cell-based. The conditions noted are these: Table 11. The text has this: (§4) Activation of calcitonin and amylin (coexpression of calcitonin receptor and receptor activity modifying proteins (RAMP)) receptors lead to increased intracellular concentrations of cAMP. Consequently, transcription is activated by promoters containing multiple copies of the cAMP response element (CRE). It is thus possible to measure amylin activity by the use of a CRE luciferase reporter gene introduced into BHK cells also expressing calcitonin or amylin receptors.
(§5) A BHK570 cell line was stably transfected with the human calcitonin receptor and a CRE-responsive luciferase reporter gene. The cell line was further transfected with RAMP-3, using standard methods. This turns the calcitonin receptor into an amylin 3(a) receptor. Methotrexate, Neomycin, and Hygromycin are selection markers for luciferase, the calcitonin receptor, and RAMP-3, respectively.
(§6) To perform activity assays, BHK calcitonin (a) receptor- or amylin 3(a)-receptor/CRE-luc cells were seeded in white 96 well culture plates at a density of about 20.000 cells/well. […] After incubation overnight at 37° C. and 5% CO2, the growth medium was replaced by 50 μl/well assay medium (DMEM (without phenol red), Glutamax™, 10% FBS, and 10 mM Hepes, pH 7.4). Further, 50 μl/well of standard or sample in assay buffer were added. […] Finally, luminescence was measured on a TopCounter (Packard) in SPC (single photon counting) mode.

Data set [3] concerns the target T3, rat amylin 3(a) receptor (rat calcitonin(a) receptor + rat RAMP3) (Rattus norvegicus, UniProt P32214+Q9JJ73).
T3 construct: expressed in transfected cells; host or cells: BHK tk'ts 13 (transient, FuGENE 6)
T3 sequence (P32214 25-479 isoform P32214-2 limits assumed): T1 sequence (P32214 25-479 isoform P32214-2 limits assumed)
T3 sequence (Q9JJ73 23-147 partner): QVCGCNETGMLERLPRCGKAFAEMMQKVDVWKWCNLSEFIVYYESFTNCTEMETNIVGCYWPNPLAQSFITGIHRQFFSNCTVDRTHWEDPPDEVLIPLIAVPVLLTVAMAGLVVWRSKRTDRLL
Briefly: Assay (II)b functional rat amylin receptor cAMP FlashPlate assay. The class given is cell-based. The conditions noted are these: Table 11.
Description: as §1, §2, §3

Data set [4] addresses T4, human amylin receptor (amylin 3(a) receptor: human calcitonin receptor + RAMP-3) (Homo sapiens, UniProt O60896+P30988).
T4 construct: expressed in transfected cells
T4 sequence (P30988 25-474): T2 sequence (P30988 25-474)
T4 sequence (O60896 24-148 partner): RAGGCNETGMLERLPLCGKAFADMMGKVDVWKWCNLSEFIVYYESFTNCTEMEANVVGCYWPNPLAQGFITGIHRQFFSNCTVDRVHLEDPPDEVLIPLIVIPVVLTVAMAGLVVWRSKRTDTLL
Briefly: Assay (II)a functional human amylin receptor CRE-luciferase assay. The class given is cell-based. The following applies: Table 11.
Description: as §4, §5, §6

Data set [5] is described as follows: Assay (IV) determination of solubility. The class given is physicochemical. The protocol: The polypeptide was dissolved in water at −500 nmol/ml and mixed 1:1 with a series of buffers (100 mM glycylglycine pH 3.0, 100 mM glycylglycine pH 4.0, 100 mM glycylglycine pH 5.0, 100 mM bistrispropane pH 6.0, 100 mM bistrispropane pH 6.5, 100 mM bistrispropane pH 7.0, 100 mM bistrispropane pH 7.5, 100 mM bistrispropane pH 8.0). After 18 hours at room temperature the samples were centrifuged and the polypeptide concentration determined by UPLC.

A short description of data set [6]: Assay (I) efficacy testing on appetite (food intake), ad libitum fed rat model. The following applies: 3 nmol/kg. The class given is in vivo, Sprague Dawley (SD) rats. In short, it runs like this: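 Single ip, po or sc dosing (0.01-3 mg/kg, by body weight) at the start of the dark phase, in individually housed Sprague Dawley rats of 200-250 g with free food and water. Intake was logged per rat each hour to 7 h, then at 24 h (occasionally 48 h), against a vehicle group; outliers removed by Grubbs test.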

The values that follow come from patent publication US9029325B2, “Amylin analogues and pharmaceutical compositions thereof” (Novo Nordisk A/S, priority 2011, dated 2015).

Structures are written as SMILES. Read-outs that look alike come from different tables or passages of the source. Starred links: 1 amine or outer side, 2 acyl side, 3 side chain; linkers in the order of their positions; H or OH if unused. Positions of bridges follow the written chain, without caps; N, C: chain ends. Residues, ends and D or L forms follow the SMILES beside them. Groups on a side chain read outwards from the residue. *: point of attachment. C20 diacid = O=C(O)CCCCCCCCCCCCCCCCCCC(=O)*; γGlu = O=C(O)[C@H](CCC(=O)[*:2])N[*:1] Bounds are passed on as bounds.

As for `CC[C@H](C)[C@H](NC(=O)[C@@H]1CCCN1C(=O)CNC(=O)[C@H](Cc1ccccc1)NC(=O)[C@H](CC(N)=O)NC(=O)[C@H](CC(N)=O)NC(=O)[C@H](CO)NC(=O)[C@H](CO)NC(=O)[C@H](Cc1c[nH]cn1)NC(=O)[C@H](Cc1c[nH]cn1)NC(=O)[C@H](CC(C)C)NC(=O)[C@H](Cc1ccccc1)NC(=O)[C@H](CCC(=O)O)NC(=O)[C@H](C)NC(=O)[C@H](CC(C)C)NC(=O)[C@H](CCCNC(=N)N)NC(=O)[C@H](CCC(N)=O)NC(=O)[C@@H](NC(=O)[C@H](C)NC(=O)[C@@H]1CSSC[C@H](NC(=O)[C@@H](N)CCCCNC(=O)CC[C@H](NC(=O)CCCCCCCCCCCCCCCCCCC(=O)O)C(=O)O)C(=O)N[C@@H](CC(N)=O)C(=O)N[C@@H]([C@@H](C)O)C(=O)N[C@@H](C)C(=O)N[C@@H]([C@@H](C)O)C(=O)N1)[C@@H](C)O)C(=O)N[C@@H](CC(C)C)C(=O)N1CCC[C@H]1C(=O)N1CCC[C@H]1C(=O)N[C@H](C(=O)N[C@@H](CC(N)=O)C(=O)N[C@H](C(=O)NCC(=O)N[C@@H](CO)C(=O)N[C@@H](Cc1c[nH]cn1)C(=O)N[C@H](C(=O)N[C@@H](Cc1ccc(O)cc1)C(N)=O)[C@@H](C)O)C(C)C)[C@@H](C)O` [compound 87] (H-K([γGlu-C20 diacid])CNTATCATQRLAEFLHHSSNNFGPILPPTNVGSHTY-NH2; disulfide 2-7 (inferred); C-terminus assumed), the concentration for a half-maximal effect (EC50) in data set [1] worked out at 0.437 nM; in data set [2], 0.228 nM; in data set [3], 0.106 nM; in data set [4], 0.142 nM. The solubility at 18 h was above 200 µM in data set [5] (pH 3.0, read-out: Solubility (μM) pH 3.0); above 200 µM in data set [5] (pH 4.0, read-out: Solubility (μM) pH 4.0); above 200 µM in data set [5] (pH 5.0, read-out: Solubility (μM) pH 5.0); above 200 µM in data set [5] (pH 6.0, read-out: Solubility (μM) pH 6.0); above 200 µM in data set [5] (pH 6.5, read-out: Solubility (μM) pH 6.5); above 200 µM in data set [5] (pH 7.0, read-out: Solubility (μM) pH 7.0). For the same compound, the solubility at 18 h in data set [5] (pH 7.5, read-out: Solubility (μM) pH 7.5) was above 200 µM; in data set [5] (pH 8.0, read-out: Solubility (μM) pH 8.0) it was above 200 µM. Besides, the “Food intake reduction 0-24 h 3 nmol/kg (%)” value in data set [6] (0-24 h) is listed as 66%. Also, the “Food intake reduction 24-48 h 3 nmol/kg (%)” value in data set [6] (24-48 h) is recorded as 47%.
